Results from US20060166319A1 (priority 2004, published 2006).

Assays:
NMR H/D exchange studies = type: physicochemical; conditions: rt
Description: Compound 7 (˜4 mg, ˜10 μmol) was dissolved in CD3OD (0.75 mL), and D2O (2 drops) was added. The reaction mixture was kept at rt and monitored by NMR (400 MHz). […] NaOD (30% w/w in D2O, 2 drops) was then added, and the solution monitored by NMR. […] After 25 h, the C5 proton peak completely disappeared.
To rule out the possibility that the loss of the C5 proton peak was due to decomposition, the resulting mixture was evaporated at rt under reduce pressure, and the residue was redissolved in CH3OH and allowed to stir for 1 day. The mixture was then evaporated to dryness in vacuo, and redissolved in CD3OD. The NMR spectrum was quickly taken, and the C5 proton peak was again observed. As before, the C5 proton peak slowly disappeared over a 1-day period.
To evaluate the importance of the imine bond on the acidity of the C5 proton, proline was dissolved in 0.75 mL CD3OD and 0.20 mL D2O and treated with […].

[1] = Stability studies of compound 8 to NaOH, LiOH and TFA (TLC); type: physicochemical; conditions: rt
Description: Stability Studies of Compound (8) to NaOH. NaOH (6 M, 20 μL, 0.12 mmol) was added to a solution of compound 8 (0.15 M, 100 μL, 0.015 mmol). The resulting mixture was allowed to react at rt over 3 days, during which the degradation of compound 8 was monitored by a ninhydrin TLC assay (CHCl3-MeOH—NH4OH(aq)=2:2:1).
Stability Studies of Compound (8) to LiOH. Compound 8 (21.9 mg, 84 μmol) was dissolved in water (2 mL) and LiOH.H2O (84.5 mg, 2.0 mmol) was added. This mixture was allowed to react at rt. While initially only starting material was observed by TLC (MeOH-EtOAc=4:1, Rf=0.26), after 24 h two new bands (Rf=0.10, 0.02) appeared. After 5 days, the solution was evaporated to dryness at rt, redissolved in MeOH (0.5 mL), and purified on chromatography silica gel. […] The other new band appears to be a mixture of species based on its NMR and MS data.
Stability Studies of Compound (8) to TFA. Compound 8 (21.7 mg, 0.083 mmol) was dissolved in MeOH (2 mL) and TFA (200 μL) was added. After 1 h, one new band (MeOH-EtOAc=2:1; Rf=0.22) was observed by TLC. The mixture was allowed to react to completion for 2 days at rt. The resulting mixture was evaporated to dryness, dissolved in MeOH (0.5 mL), and subjected to chromatography on silica gel. […] The peak for the C2 imine proton is absent, and the peak for the C5 proton is either absent or shifted.

PylS-His6 [2] = biological target: T1, PylS-His6 (Methanosarcina barkeri, UniProt Q6WRH6); test: Aminoacylation of tRNACUA in acid-urea gels (gel-shift, northern blot); type: biochemical; conditions: for aminoacylation of tRNA^lys in the M. acetivorans tRNA pool: tRNA^lys instead of tRNACUA
T1 construct: made in house; host or cells: E. coli BL21 (DE3)
T1 sequence (Q6WRH6 whole entry): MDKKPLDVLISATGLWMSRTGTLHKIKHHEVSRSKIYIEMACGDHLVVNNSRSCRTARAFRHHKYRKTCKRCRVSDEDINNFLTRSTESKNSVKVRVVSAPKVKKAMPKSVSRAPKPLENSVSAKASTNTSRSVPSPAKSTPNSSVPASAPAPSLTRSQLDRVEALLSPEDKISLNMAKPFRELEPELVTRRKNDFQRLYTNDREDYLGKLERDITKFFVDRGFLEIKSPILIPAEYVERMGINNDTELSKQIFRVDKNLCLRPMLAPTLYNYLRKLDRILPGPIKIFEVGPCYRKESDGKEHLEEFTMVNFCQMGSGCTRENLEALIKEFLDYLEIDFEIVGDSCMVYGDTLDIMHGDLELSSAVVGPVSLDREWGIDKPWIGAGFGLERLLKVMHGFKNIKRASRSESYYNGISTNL
Source text: Recombinant PylS-His6 was purified by Ni affinity chromatography from lysates of Escherichia coli expressing the recombinant Methanosarcina barkeri pylS gene modified so as to add a carboxy-terminal hexahistidine tag to the gene product. The tRNA pool extracted from Methanosarcina acetivorans or tRNACUA transcribed in vitro was used in charging experiments. Charged and uncharged tRNA species were separated by electrophoresis in a denaturing acid-urea polyacrylamide gel and tRNACUA was specifically detected by northern blotting with an oligonucleotide probe.
The reaction was terminated after 5-30 min at 37° C. with an equal volume of 0.3 M sodium acetate, 8 M urea pH 5.0. Charged and uncharged tRNA were separated by acid-urea acrylamide gel electrophoresis, blotted to nitrocellulose and probed with a 5μ ^32P-end-labelled, 72-base oligonucleotide complementary to tRNA^CUA. Radioactivity was analysed with a STORM Phosphorimager (Amersham Biosciences).
(§1) Aminoacylation assay in acid-urea gels. […] Following incubation at 37° C. for 5 to 30 minutes, the reaction was terminated by addition of an equal volume of 2× loading dye (0.3 M sodium acetate, 8 M urea, pH 5.0) and charged and uncharged tRNA species analysed by acid-urea acrylamide gel electrophoresis following the methods outlined in Jester et al. Samples were electrophoresed in 14% polyacrylamide gels buffered with a 0.3 M sodium acetate-7 M urea solution, pH 5.0, at 50 volts and 4° C. for 24 hours. The same buffer without urea was used in the electrode chambers, and was replaced with fresh buffer every 6-8 hours. Finished gels were transblotted for 2 hours at 40 volts in 4° C. in a blotting solution of 10 mM Tris-acetate, 5 mM sodium acetate, and 0.5 mM EDTA, pH 8.0. The blot was then cross-linked by ultraviolet radiation (15000 μJ/cm2 per side) then prehybrized in 0.25 M sodium phosphate buffer, pH 7.2, and 5.7% SDS for at least 30 minutes. In order to detect charged and uncharged tRNACUA a 72 base oligonucleotide complementary to full length of tRNACUA was labeled with γ-^32P ATP and polynucleotide kinase. The probe was hybridized with the blot overnight at room temperature, then agitated at 22° C. for 5 minute in 10 mM sodium citrate, 150 mM NaCl, 1% SDS, pH 7.0, then agitated with two changes of 5 mM sodium citrate, 75 mM sodium chloride, 1% SDS, pH 7.0, for 5 minutes each. Radioactivity on the blot was imaged and analyzed using a STORM Phosphorimager (Amersham Biosciences).

His6-PylS = biological target: T2, His6-PylS (Methanosarcina barkeri, UniProt Q6WRH6); test: Gel-shift aminoacylation assay with N-terminally His-tagged PylS; type: biochemical
T2 construct: made in house; host or cells: E. coli (inferred from the control with untransformed E. coli)
T2 sequence (Q6WRH6 whole entry): as above
Description: as §1, with “The probe was hybridized with the blot overnight at room temperature, then agitated at 22° C. for 5 minute in 10 mM sodium citrate, 150 mM NaCl, 1% SDS, pH 7.0, then agitated with two changes of 5 mM sodium citrate, 75 mM sodium chloride, 1% SDS, pH 7.0, for 5 minutes each.” left out

PylS-His6 [3] = biological target: T1, PylS-His6; test: Pyrrolysine dependent pyrophosphate:ATP exchange; type: biochemical; parameters: apparent Vmax: unit not given here
Description: As a prerequisite of tRNA aminoacylation, an aminoacyl-adenylate and pyrophosphate are formed from the amino acid and ATP by an aminoacyl-tRNA synthetase. This reversible activation reaction can be assayed by the isotopic exchange of ^32P-pyrophosphate into ATP dependent on the addition of the cognate amino acid for the aminoacyl-tRNA synthetase in question.
The pyrophosphate exchange reaction was essentially performed following the method of Cole and Schimmel. All reactions were performed in duplicate at 37° C. The 100 to 200 μl reactions contained (unless noted) 0.3 to 1 μM PylSHis6. […] The specific activity of the radiolabel was adjusted from 4 to 10 dpm/pmol). The concentration of protein was 0.3 to 1 μM. At specific times, 25 μl aliquots were removed and quenched in 500 μl of a stop solution containing 1.6% (w/v) activated acid-washed charcoal (Sigma Chemical Co., St. Louis, Mo.), 80 mM sodium tetrapyrophosphate, and 3.5% (v/v) perchloric acid. Samples were filtered through Whatman GF/C glass-fiber filters and then the filter was washed three times with 5 ml of 40 mM sodium tetrasodium pyrophosphate solution containing 1.7% perchloric acid (v/v) and once with 5 ml 100% ethanol. Filters were dried at 80° C. for 5 minutes then placed in 20 ml scintillation vials containing 10 ml of Ultima Gold F scintillation cocktail (PerkinElmer), shaken once, and counted in a liquid scintillation analyzer. Identical reactions without amino acid, ATP, or enzyme were also set up as negative controls in duplicate. […] One substrate was kept constant at a concentration higher than its respective apparent Km value.

[4] = tested on: E. coli BL21 (DE3) expressing pylT, pylS and mtmB1; test: Pyrrolysine-dependent amber suppression (mtmB1 UAG readthrough, anti-MtmB immunoblot); type: cell-based; conditions: strain expressing pylT, 1 mM amino acid, 4 h induction
Source text: As a reporter of UAG translation as a sense codon, we introduced the mtmB1 gene into E. coli BL21 (DE3). […] Plasmids were constructed bearing combinations of mtmB1, pylS and/or pylT under the control of the T7 promoter, and transformed into E. coli. […] Total cellular proteins from each strain were then separated by SDS-polyacrylamide-gel electrophoresis and mtmB1 gene products were detected by subsequent immunoblotting with polyclonal antibody specific for purified M. barkeri MtmB.
To test for amber suppression, overnight cultures were grown in Luria-Bertani broth (3 ml) with 100 μg ml^−1 ampicillin. Subsequently, 200 μl was inoculated into 1 ml fresh medium and grown to a D600 of 0.6. […] The mtmB1 gene products in equivalent amounts of lysates were then analysed by immunoblotting of a SDS 12.5% polyacrylamide gel with affinity-purified rabbit anti-MtmB antibody^6. The Rainbow Molecular Weight markers (Amersham Biosciences) were used.
To test for amber suppression, overnight cultures of a strain bearing one of the plasmids were grown in LB broth (3 mL) with 100 ug/ml final ampicillin. Subsequently, 200 μl of each culture was inoculated into 1 ml of fresh LB medium with ampicillin, and grown to an A600 of approximately 0.6. […]

[5] = tested on: E. coli BW25141(DE3) transformed with pDLGUS; test: beta-glucuronidase activity from uidA gene with UAG codon replacing AAA286; type: cell-based
Source text: In order to avoid interference by the residue uidA gene, we employed a strain with most of uidA deleted, E. coli BW25141(DE3). This strain was transformed with pDLGUS, a variant of the pEC03 plasmid in which the mtmB1 gene was removed and the uidA gene introduced in its place.

## COC(=O)[C@H](CCCCNC(=O)[C@@H]1N=CC[C@H]1C)NC(=O)C(F)(F)F [Compound 7, Nα-Trifluoroacetyl-L-pyrrolysine methyl ester]
NMR H/D exchange studies; CD3OD with D2O, 3-day period, no base
  change in NMR spectrum: No change was observed
NMR H/D exchange studies; CD3OD/D2O with NaOD
  time until C5 proton peak completely disappeared (H/D exchange): 25 h

## C[C@@H]1CC=N[C@H]1C(=O)NCCCC[C@H](N)C(=O)[O-].[Li+] [Compound 8, L-Pyrrolysine lithium salt]
[1]; LiOH in water, after 24 h
  degradation in LiOH observed by TLC: two new bands
[1]; NaOH 6 M 20 μL added to 0.15 M solution, over 3 days
  degradation in NaOH monitored by ninhydrin TLC: One new band
[1]; TFA in MeOH, after 1 h
  degradation in TFA observed by TLC: one new band

## NCCCC[C@H](N)C(=O)O [lysine, reference compound]
PylS-His6 [2]; 20 canonical amino acids each at 50 μM, or only 50 μM lysine, no pyrrolysine
  formation of charged tRNACUA species: not formed
PylS-His6 [2]
  aminoacylation of tRNA^lys in the M. acetivorans tRNA pool: does not aminoacylate
His6-PylS
  lysyl- or pyrrolysyl-tRNA synthetase activity: no lysyl-tRNA synthetase activity was detectable
PylS-His6 [3]; incubation as long as 30 min, canonical 20 amino acids each at 100 μM, or 1 mM lysine
  isotopic exchange into ATP above background: no detectable isotopic exchange
[4]
  UAG readthrough: expression of 50-kDa MtmB: could not be replaced

## C[C@@H]1CC=N[C@H]1C(=O)NCCCC[C@H](N)C(=O)O [pyrrolysine, lysine in amide linkage with (4R,5R)-4-methyl-pyrroline-5-carboxylate]
PylS-His6 [2]; deacylated M. acetivorans cellular tRNA pool, incubation with pyrrolysine, ATP and PylS-His6
  maximal conversion of deacylated tRNACUA to charged species: 50%
PylS-His6 [2]; in vitro transcribed tRNACUA, synthetic pyrrolysine, ATP-dependent
  maximum of tRNACUA transcribed in vitro aminoacylated: 43%
PylS-His6 [2]
  aminoacylation of tRNA^lys in the M. acetivorans tRNA pool: does not aminoacylate
His6-PylS
  lysyl- or pyrrolysyl-tRNA synthetase activity: does have pyrrolysyl-tRNA synthetase activity
PylS-His6 [3]; 37° C., pH 7.2, other substrate held constant, read-out: apparent Km
  Km: 53 µM
PylS-His6 [3]; exchange reaction, 37° C.
  apparent Vmax: 120
[4]
  UAG readthrough: expression of 50-kDa MtmB: large amounts of 50-kDa MtmB
[5]; 1 mM synthetic pyrrolysine versus absence of pyrrolysine
  increase of beta-glucuronidase activity: approximately 100 fold
[5]; induced with IPTG in the presence of 1 mM synthetic pyrrolysine
  beta-glucuronidase activity: 4. umol/min·mg protein
